Experimental data from patent US20250320193A1, “OXOISOINDOLINYL SUBSTITUTED PIPERIDINEDIONE DERIVATIVE AND USE THEREOF” (GLUETACS THERAPEUTICS (SHANGHAI) CO., LTD., priority 2022, published 2025).

Columns and labels:
[1] = target: human Cereblon WT GST-tagged protein (Homo sapiens (Human), UniProt Q96SW2); assay: CRBN-binding affinity, HTRF (CEREBLON BINDING kit, CISBIO); settings: HTRF inhibitory activity
Summary of the method: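 Compounds were mixed with GST-tagged human Cereblon WT protein, then with Thalidomide-Red tracer and GST Eu antibody, and binding was read by HTRF. Inhibition rate was calculated from 620 nm emission relative to blank control wells (no protein) and solvent control wells.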

IKZF1 = IKZF1 (Homo sapiens (Human), UniProt Q13422+Q96SW2); assay: Western blot, substrate protein expression in hPBMC: IKZF1; format: cell-based; settings: for substrate protein remaining % IKZF1: hPBMC, compound 500 nM, 24 hours, Western blot
Chain of IKZF1 (Q13422 whole entry): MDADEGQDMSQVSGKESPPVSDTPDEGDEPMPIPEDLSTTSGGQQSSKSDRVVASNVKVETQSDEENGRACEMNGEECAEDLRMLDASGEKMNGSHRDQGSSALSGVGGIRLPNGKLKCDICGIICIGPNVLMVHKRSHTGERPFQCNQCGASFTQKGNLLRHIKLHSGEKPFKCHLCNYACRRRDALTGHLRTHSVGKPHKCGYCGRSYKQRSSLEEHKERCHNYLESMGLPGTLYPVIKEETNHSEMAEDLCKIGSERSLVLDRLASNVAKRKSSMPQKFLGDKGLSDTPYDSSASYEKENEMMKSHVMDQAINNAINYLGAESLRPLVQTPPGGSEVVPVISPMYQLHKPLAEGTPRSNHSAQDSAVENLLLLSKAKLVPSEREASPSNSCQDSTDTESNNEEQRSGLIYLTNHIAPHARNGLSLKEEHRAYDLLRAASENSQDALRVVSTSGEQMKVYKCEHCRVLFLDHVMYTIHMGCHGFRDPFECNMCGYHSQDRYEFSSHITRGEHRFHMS
Chain of IKZF1 (Q96SW2 whole entry): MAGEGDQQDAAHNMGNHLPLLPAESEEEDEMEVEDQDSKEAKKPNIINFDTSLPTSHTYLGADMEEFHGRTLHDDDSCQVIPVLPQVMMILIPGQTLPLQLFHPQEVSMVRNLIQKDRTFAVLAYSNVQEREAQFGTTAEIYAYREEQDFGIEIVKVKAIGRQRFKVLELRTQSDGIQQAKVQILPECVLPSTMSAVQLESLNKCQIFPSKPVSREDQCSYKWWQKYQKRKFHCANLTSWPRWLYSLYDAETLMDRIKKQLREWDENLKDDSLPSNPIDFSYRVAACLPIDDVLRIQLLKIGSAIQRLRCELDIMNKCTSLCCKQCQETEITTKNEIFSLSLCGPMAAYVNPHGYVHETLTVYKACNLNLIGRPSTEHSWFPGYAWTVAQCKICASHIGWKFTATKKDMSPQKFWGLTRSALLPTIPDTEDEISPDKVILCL
Chain of IKZF1 (Q16531 whole entry partner): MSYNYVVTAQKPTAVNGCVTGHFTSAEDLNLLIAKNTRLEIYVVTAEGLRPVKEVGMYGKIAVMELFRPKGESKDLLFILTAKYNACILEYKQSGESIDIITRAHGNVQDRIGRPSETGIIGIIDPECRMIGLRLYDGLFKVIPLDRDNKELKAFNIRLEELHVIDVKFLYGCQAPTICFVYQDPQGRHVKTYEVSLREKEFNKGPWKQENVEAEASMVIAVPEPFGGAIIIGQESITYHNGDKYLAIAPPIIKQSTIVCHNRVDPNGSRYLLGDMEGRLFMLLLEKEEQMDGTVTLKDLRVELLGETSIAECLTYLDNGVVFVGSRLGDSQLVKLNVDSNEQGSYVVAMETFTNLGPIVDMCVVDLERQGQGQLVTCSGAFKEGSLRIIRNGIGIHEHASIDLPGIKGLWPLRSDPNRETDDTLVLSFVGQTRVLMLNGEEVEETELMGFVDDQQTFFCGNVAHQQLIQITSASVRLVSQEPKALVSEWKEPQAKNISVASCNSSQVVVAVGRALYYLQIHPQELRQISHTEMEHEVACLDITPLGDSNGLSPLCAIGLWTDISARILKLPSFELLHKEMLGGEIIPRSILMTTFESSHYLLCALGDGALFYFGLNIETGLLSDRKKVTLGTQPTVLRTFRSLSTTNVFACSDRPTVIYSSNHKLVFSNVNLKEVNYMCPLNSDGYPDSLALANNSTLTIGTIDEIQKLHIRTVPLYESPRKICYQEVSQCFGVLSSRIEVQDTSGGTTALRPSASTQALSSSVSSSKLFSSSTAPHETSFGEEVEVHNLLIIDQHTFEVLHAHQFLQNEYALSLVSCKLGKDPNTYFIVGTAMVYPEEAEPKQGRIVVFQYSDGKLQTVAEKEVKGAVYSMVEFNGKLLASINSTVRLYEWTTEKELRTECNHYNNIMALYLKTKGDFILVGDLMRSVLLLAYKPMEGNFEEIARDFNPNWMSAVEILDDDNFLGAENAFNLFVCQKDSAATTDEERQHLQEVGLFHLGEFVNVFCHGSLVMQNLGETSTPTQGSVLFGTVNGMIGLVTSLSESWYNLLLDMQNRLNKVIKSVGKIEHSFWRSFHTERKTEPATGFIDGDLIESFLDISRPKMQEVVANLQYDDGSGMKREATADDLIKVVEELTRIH
Summary of the method: (§1)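 hPBMC, 1×10^6 cells/mL, 24 h compound exposure; RIPA lysis, BCA protein assay, SDS-PAGE, NC membrane immunoblot. Densitometry vs internal control → % protein remaining; degradation % = 100% − remaining; DC50 = conc. at 50% of DMSO band signal.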

IKZF3 = IKZF3 (Homo sapiens (Human), UniProt Q96SW2+Q9UKT9); assay: Western blot, substrate protein expression in hPBMC: IKZF3; format: cell-based; settings: for substrate protein remaining % IKZF3: hPBMC, compound 500 nM, 24 hours, Western blot
Chain of IKZF3 (Q9UKT9 whole entry): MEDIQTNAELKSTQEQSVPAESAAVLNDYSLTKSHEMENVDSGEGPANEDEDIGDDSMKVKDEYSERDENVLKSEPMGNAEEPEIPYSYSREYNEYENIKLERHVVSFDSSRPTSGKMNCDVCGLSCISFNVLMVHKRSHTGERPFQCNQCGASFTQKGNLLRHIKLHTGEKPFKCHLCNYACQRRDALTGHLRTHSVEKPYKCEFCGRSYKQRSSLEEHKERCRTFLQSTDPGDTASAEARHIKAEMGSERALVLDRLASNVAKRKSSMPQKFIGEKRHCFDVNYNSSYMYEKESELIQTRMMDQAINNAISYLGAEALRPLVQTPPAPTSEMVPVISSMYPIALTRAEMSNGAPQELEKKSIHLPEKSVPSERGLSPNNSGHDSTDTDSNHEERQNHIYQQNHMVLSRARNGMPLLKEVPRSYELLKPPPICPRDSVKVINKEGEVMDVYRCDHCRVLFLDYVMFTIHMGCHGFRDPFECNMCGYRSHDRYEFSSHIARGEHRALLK
Chain of IKZF3 (Q96SW2 whole entry): as the sequence (Q96SW2 whole entry) above
Chain of IKZF3 (Q16531 whole entry partner): as the sequence (Q16531 whole entry partner) above
Summary of the method: as §1

GSPT1 = GSPT1 (Homo sapiens (Human), UniProt P15170+Q96SW2); assay: Western blot, substrate protein expression in hPBMC: GSPT1; format: cell-based; settings: for substrate protein remaining % GSPT1: hPBMC, compound 500 nM, 24 hours, Western blot; for concentration at which GSPT1 protein was clearly/significantly degraded (Western blot, FIG. 1): hPBMCs
Chain of GSPT1 (P15170 whole entry): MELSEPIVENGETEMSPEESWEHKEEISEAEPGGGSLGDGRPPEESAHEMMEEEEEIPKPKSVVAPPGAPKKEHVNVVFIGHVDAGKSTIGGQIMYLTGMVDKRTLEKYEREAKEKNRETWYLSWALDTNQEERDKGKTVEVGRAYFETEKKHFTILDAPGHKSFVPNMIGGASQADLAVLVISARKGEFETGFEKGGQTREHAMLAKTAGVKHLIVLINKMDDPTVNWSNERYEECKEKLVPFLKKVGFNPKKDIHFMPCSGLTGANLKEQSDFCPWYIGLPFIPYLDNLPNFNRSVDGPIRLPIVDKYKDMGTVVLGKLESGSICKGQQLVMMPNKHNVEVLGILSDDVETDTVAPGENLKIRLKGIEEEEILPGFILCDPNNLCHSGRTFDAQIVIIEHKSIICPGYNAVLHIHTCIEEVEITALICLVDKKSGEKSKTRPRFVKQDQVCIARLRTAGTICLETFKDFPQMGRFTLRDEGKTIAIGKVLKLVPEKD
Chain of GSPT1 (Q96SW2 whole entry): as the sequence (Q96SW2 whole entry) above
Chain of GSPT1 (Q16531 whole entry partner): as the sequence (Q16531 whole entry partner) above
Summary of the method: as §1

Chain of human Cereblon WT GST-tagged protein (Q96SW2 whole entry): as the sequence (Q96SW2 whole entry) above

SMILES | IC50 [1] | substrate protein remaining % IKZF1 (IKZF1) | substrate protein remaining % IKZF3 (IKZF3) | substrate protein remaining % GSPT1 (GSPT1) | concentration at which IKZF1 protein was significantly degraded (Western blot, FIG. 1) (IKZF1; hPBMCs) | concentration at which IKZF3 protein was significantly degraded (Western blot, FIG. 1) (IKZF3; hPBMCs) | concentration at which GSPT1 protein was clearly/significantly degraded (Western blot, FIG. 1) (GSPT1)
O=C1CCC(N2Cc3c(CN4CCC(N(c5ccccc5)c5ccccc5)CC4)cccc3C2=O)C(=O)N1 (stereo not shown) [GT-04992, 3-(4-((4-(diphenylamino)piperidin-1-yl)methyl)-1-oxoisoindolin-2-yl)piperidine-2,6-dione] | < 0.5 µM | B (B represents substrate protein remaining % > 50%) | B (B represents substrate protein remaining % > 50%) | A (A represents 0% ≤ substrate protein remaining % ≤ 50%) | – | – | –
O=C1CCC(N2Cc3cc(CCCN4CCN(C(c5ccccc5)c5ccccc5)CC4)ccc3C2=O)C(=O)N1 (stereo not shown) [GT-05688, 3-(5-(3-(4-benzhydrylpiperazin-1-yl)propyl)-1-oxoisoindolin-2-yl)piperidine-2,6-dione] | 1 to 1.9 µM | A (A represents 0% ≤ substrate protein remaining % ≤ 50%) | A (A represents 0% ≤ substrate protein remaining % ≤ 50%) | B (B represents substrate protein remaining % > 50%) | below 50 nM | below 50 nM | –
O=C1CCC(N2Cc3cc(C(=O)N4CCN(C(c5ccccc5)c5ccccc5)CC4)ccc3C2=O)C(=O)N1 (stereo not shown) [GT-05689, 3-(5-(4-benzhydrylpiperazine-1-carbonyl)-1-oxoisoindolin-2-yl)piperidine-2,6-dione] | 0.5 to 1 µM | B (B represents substrate protein remaining % > 50%) | B (B represents substrate protein remaining % > 50%) | A (A represents 0% ≤ substrate protein remaining % ≤ 50%) | – | – | below 50 nM
O=C1CCC(N2Cc3c(ccc(CN4CCN(C(c5ccccn5)c5ccccn5)CC4)c3F)C2=O)C(=O)N1 (stereo not shown) [GT-05713, 3-(5-((4-(di(pyridin-2-yl)methyl)piperazin-1-yl)methyl)-4-fluoro-1-oxoisoindolin-2-yl)piperidine-2,6-dione] | 0.5 to 1 µM | B (B represents substrate protein remaining % > 50%) | B (B represents substrate protein remaining % > 50%) | A (A represents 0% ≤ substrate protein remaining % ≤ 50%) | – | – | –
O=C1CCC(N2C(=O)c3ccc(CN4CC5CCC4CN5C(c4ccccc4)c4ccccc4)cc3C2=O)C(=O)N1 (stereo not shown) [GT-05730, 5-((5-benzhydryl-2,5-diazabicyclo[2.2.2]octan-2-yl)methyl)-2-(2,6-dioxopiperidin-3-yl) isoindoline-1,3-dione] | 1 to 1.9 µM | B (B represents substrate protein remaining % > 50%) | B (B represents substrate protein remaining % > 50%) | A (A represents 0% ≤ substrate protein remaining % ≤ 50%) | – | – | –
O=C1CCC(N2Cc3cc(CN4C5CC4CN(C(c4ccccc4)c4ccccc4)C5)c(F)cc3C2=O)C(=O)N1 (stereo not shown) [GT-05737, 3-(5-((3-benzhydryl-3,6-diazabicyclo[3.1.1]heptan-6-yl)methyl)-6-fluoro-1-oxoisoindolin-2-yl)piperidine-2,6-dione] | 0.5 to 1 µM | B (B represents substrate protein remaining % > 50%) | B (B represents substrate protein remaining % > 50%) | A (A represents 0% ≤ substrate protein remaining % ≤ 50%) | – | – | –
O=C1CCC(N2Cc3cc(CN4CCCN(C(c5ccccc5)c5ccccc5)CC4)c(F)cc3C2=O)C(=O)N1 (stereo not shown) [GT-05738, 3-(5-((4-benzhydryl-1,4-diazepan-1-yl)methyl)-6-fluoro-1-oxoisoindolin-2-yl)piperidine-2,6-dione] | 1 to 1.9 µM | B (B represents substrate protein remaining % > 50%) | B (B represents substrate protein remaining % > 50%) | A (A represents 0% ≤ substrate protein remaining % ≤ 50%) | – | – | –
O=C1CCC(N2Cc3cc(CC4CCN(C(c5ccccc5)c5ccccc5)CC4)ccc3C2=O)C(=O)N1 (stereo not shown) [GT-05744, 3-(5-((1-benzhydrylpiperidin-4-yl)methyl)-1-oxoisoindolin-2-yl)piperidine-2,6-dione] | < 0.5 µM | B (B represents substrate protein remaining % > 50%) | B (B represents substrate protein remaining % > 50%) | A (A represents 0% ≤ substrate protein remaining % ≤ 50%) | – | – | –
O=C1CCC(N2Cc3cc(C(=O)N4CCN(C(c5ccccc5)c5ccccc5)CC4)cc(F)c3C2=O)C(=O)N1 (stereo not shown) [GT-05850, 3-(5-(4-benzhydrylpiperazine-1-carbonyl)-7-fluoro-1-oxoisoindolin-2-yl)piperidine-2,6-dione] | 1 to 1.9 µM | A (A represents 0% ≤ substrate protein remaining % ≤ 50%) | B (B represents substrate protein remaining % > 50%) | A (A represents 0% ≤ substrate protein remaining % ≤ 50%) | – | – | –
O=C1CCC(N2Cc3cc(C(=O)N4CCN(C(c5ccccc5)c5ccccn5)CC4)ccc3C2=O)C(=O)N1 (stereo not shown) [GT-05854, 3-(1-oxo-5-(4-(phenyl(pyridin-2-yl)methyl)piperazine-1-carbonyl)isoindolin-2-yl)piperidine-2,6-dione] | 1 to 1.9 µM | B (B represents substrate protein remaining % > 50%) | B (B represents substrate protein remaining % > 50%) | A (A represents 0% ≤ substrate protein remaining % ≤ 50%) | – | – | –
O=C1CCC(N2Cc3cc(CN4CCC(N(c5ccccc5)c5ccccn5)CC4)cc(F)c3C2=O)C(=O)N1 (stereo not shown) [GT-05858, 3-(7-fluoro-1-oxo-5-((4-(phenyl(pyridin-2-yl)amino)piperidin-1-yl)methyl)isoindolin-2-yl)piperidine-2,6-dione] | 0.5 to 1 µM | B (B represents substrate protein remaining % > 50%) | B (B represents substrate protein remaining % > 50%) | A (A represents 0% ≤ substrate protein remaining % ≤ 50%) | – | – | below 50 nM
O=C1CCC(N2Cc3cc(CC4CN(C(c5ccccc5)c5ccccc5)C4)ccc3C2=O)C(=O)N1 (stereo not shown) [GT-05859, 3-(5-((1-benzhydrylazetidin-3-yl)methyl)-1-oxoisoindolin-2-yl)piperidine-2,6-dione] | < 0.5 µM | A (A represents 0% ≤ substrate protein remaining % ≤ 50%) | B (B represents substrate protein remaining % > 50%) | A (A represents 0% ≤ substrate protein remaining % ≤ 50%) | – | – | –
O=C1CCC(N2Cc3cc(C4CCN(C(c5ccccc5)c5ccccc5)CC4)ccc3C2=O)C(=O)N1 (stereo not shown) [GT-05868, 3-(5-(1-benzhydrylpiperidin-4-yl)-1-oxoisoindolin-2-yl)piperidine-2,6-dione] | 0.5 to 1 µM | A (A represents 0% ≤ substrate protein remaining % ≤ 50%) | A (A represents 0% ≤ substrate protein remaining % ≤ 50%) | A (A represents 0% ≤ substrate protein remaining % ≤ 50%) | – | – | –
O=C1CCC(N2Cc3cc(C(=O)N4CCN(C(c5ccccc5)c5ccccn5)CC4)cc(F)c3C2=O)C(=O)N1 (stereo not shown) [GT-05877, 3-(7-fluoro-1-oxo-5-(4-(phenyl(pyridin-2-yl)methyl)piperazine-1-carbonyl)isoindolin-2-yl)piperidine-2,6-dione] | 1 to 1.9 µM | B (B represents substrate protein remaining % > 50%) | B (B represents substrate protein remaining % > 50%) | A (A represents 0% ≤ substrate protein remaining % ≤ 50%) | – | – | –
O=C1CCC(N2Cc3cc(C(=O)N4CCN(C(c5ccc(F)cc5)c5ccc(F)cc5)CC4)ccc3C2=O)C(=O)N1 (stereo not shown) [GT-05881, 3-(5-(4-(bis(4-fluorophenyl)methyl)piperazine-1-carbonyl)-1-oxoisoindolin-2-yl)piperidine-2,6-dione] | 0.5 to 1 µM | B (B represents substrate protein remaining % > 50%) | B (B represents substrate protein remaining % > 50%) | A (A represents 0% ≤ substrate protein remaining % ≤ 50%) | – | – | –
